Source: patent US6797706B1, “Heterocyclecarboxamide derivative” (Yamanouchi Pharmaceutical Co., Ltd., priority 1999, dated 2004)

What was measured:
PCA reaction = assay: Mouse Passive Cutaneous Anaphylaxis (PCA) Test; type: in vivo; conditions: Male ICR (CD-1) mice; subcutaneously 30 minutes or orally 2 hours before antigen challenge
Method: 3. Mouse Passive Cutaneous Anaphylaxis (PCA) Test […] After 24 hours of the sensitization, 200 μl of 0.5% Evans blue solution containing 50 μg of DNP-conjugated bovine serum albumin was intravenously administered, and, after 30 minutes, each mouse was sacrificed through exsanguination to isolate both ears. […] The dye in the tissues was extracted with formaride and colorimetrically determined at 620 nm. A value obtained by subtracting the dye content of the left ear from the dye content of the right ear was used as the amount of dye leaked into the tissues by the PCA reaction. The PCA inhibition ratio by the test compound was calculated based on the following equation. In the formula, C: amount of the dye leaked into the tissue at the time of the administration of the vehicle alone, and x: amount of the dye leaked into the tissue at the time of the administration of the test compound. Inhibition ratio (%)={C-X}×100/C

release of serotonin = assay: Serotonin Release Test; type: cell-based; conditions: read-out: inhibitory activity as IC50 value against the release of serotonin
Method: 2. Serotonin Release Test
This was carried out in accordance with the method reported by Collado-Escobar et al. (Collado-Escobar, D et al. J. Immunol., 144: 3449-3457 (1990)).

Syk = target: T1, Syk (Homo sapiens, UniProt P43405); assay: Syk Tyrosine Kinase Inhibition Test (SPA system); type: biochemical
T1 construct: FLAG tag (8 amino acid residues) (C); made in house; host or cells: Sf-9 insect cells (baculovirus, pFASTBAC HT)
Text: 1. Syk Tyrosine Kinase Inhibition Test
1) Preparation of Syk Protein
Human Syk gene, in the form where a gene of FLAG tag consisting of 8 amino acid residues was linked to the 3′-end, was cloned using RT-PCR method from total RNA prepared from Jurkat cells. The amplified cDNA was incorporated into a vector, pFASTBAC HT, contained in Baculovirus Expression System (GIBCO BRL Inc.). The pFASTBAC HT is designed in such a manner that a His tag consisting of 6 histidine residues can be fused to the 5′-end of Syk. This plasmid DNA was introduced into competent cells, DH10BAC, contained in the Baculovirus Expression System to prepare DNA of recombinant virus. Thereafter, the recombinant virus (culture supernatant) was obtained by transfection of the DNA of recombinant virus into Sf-9 cells (ATCC). […]
SPA (Scintillation Proximity Assay) is a system developed by Amersham making use of a phenomenon in which scintillation occurs when a molecule having a radioactivity is in the proximity of (linked to) the surface of plastic beads containing a scintillant included therein. […]
The plate was sealed, stirred, allowed to stand at room temperature for 15 minutes and then centrifuged at 1,500 rpm for 3 minutes to precipitate the SPA beads. Radioactivity of each well was measured using TOP COUNT (PACKARD), and the tyrosine phosphorylation activity by Syk was calculated.

Row | SMILES | IC50 (release of serotonin) | inhibitory activity against Syk at 1 μM (Syk) | suppression of PCA reaction (PCA reaction)
1 | Cc1cccc(Nc2nc(N[C@@H]3CCCC[C@@H]3N)ccc2C(N)=O)c1.Cl (relative stereo) [Example 1] | – | – | excellently suppressed PCA reaction
2 | Cc1cccc(Nc2nc(N[C@@H]3CCCC[C@@H]3N)cnc2C(N)=O)c1 (relative stereo) [Example 2, 5-(cis-2-aminohexylamino)-3-(3-methylanilino)pyrazine-2-carboxamide] | – | – | excellently suppressed PCA reaction
3 | CNC(=O)c1cnc(NCCN)nc1Nc1cccc(C(F)(F)F)c1 [2-(2-aminoethylamino)-N-methyl-4-(3-trifluoromethylanilino)pyrimidine-5-carboxamide] | – | did not exhibit any inhibitory activity | –

The next lines start with results.

Row | IC50 (release of serotonin) | inhibitory activity against Syk at 1 μM (Syk) | SMILES | suppression of PCA reaction (PCA reaction)
4 | ≤ 100 nM | – | COc1cccc(Nc2nc(N[C@@H]3CCCC[C@@H]3N)cnc2C(N)=O)c1 (relative stereo) [Example 8, 5-(cis-2-aminocyclohexylamino)-3-(3-methoxyanilino)pyrazine-2-carboxamide] | excellently suppressed PCA reaction
5 | ≤ 100 nM | – | COc1cc(Nc2nc(N[C@@H]3CCCC[C@@H]3N)cnc2C(N)=O)cc(OC)c1 (relative stereo) [Example 10, 5-(cis-2-aminocyclohexylamino)-3-(3,5-dimethoxyanilino)pyrazine-2-carboxamide] | excellently suppressed PCA reaction
6 | ≤ 100 nM | – | CSc1ccc(Nc2nc(N[C@@H]3CCCC[C@@H]3N)cnc2C(N)=O)cc1 (relative stereo) [Example 11, 5-(cis-2-aminocyclohexylamino)-3-(4-methylsulfanylanilino)pyrazine-2-carboxamide] | excellently suppressed PCA reaction
7 | – | did not exhibit any inhibitory activity | CN(C)C(=O)c1cnc(NCCN)nc1Nc1cccc(C(F)(F)F)c1 [2-(2-aminoethylamino)-N,N-dimethyl-4-(3-trifluoromethylanilino)pyrimidine-5-carboxamide] | –
